The test system of one experiment is gastric acid secretion. The experiment can be described thus: Gastric acid secretion inhibition, modified Shay rat procedure. The format is in vivo, rats (male, CFE strain). Particulars: Rattus norvegicus, read-out: Percent inhibition of gastric acid secretion. The source says: The novel compounds of the present invention are effective inhibitors of gastric acid secretion and of ulcer development in experimental animals, and thus are potentially valuable as agents for the control of gastric secretion and of gastric erosion and as anti-ulcer agents. Gastric acid secretion inhibitory action is usually measured by the "Shay rat" procedure ^(1,2) with some modifications as follows.
(1) Shay et al., Gastroenterology, 5, 43 (1945).
The rats (male, CFE strain) were starved for 48 hours (water was given ad libitum) to permit evacuation of stomach contents. On the morning of the experiment, under ether anesthesia, the abdominal region was shaved and a midline incision (1-11/2" ) was made with a scapel. With the help of a closed curved hemostat the duodenum was picked up. Upon getting the duodenum into view, fingers were used to pull the stomach through the opening, the stomach was then gently manipulated with fingers to rid stomach of air and residual matter which were pushed through the pylorus. Two-5 inch sutures were drawn under the pyloric-duodenal puncture. A ligature at the juncture, was formed with one of the threads. The second ligature was also formed but not tightened.
The test compound or the vehicle, usually 1 ml./100 g. body weight, were injected into the duodenum as close as possible to the first ligature. After injection the second ligature was tightened below the injection site to minimize leakage. The stomach was placed back through the opening into the abdominal cavity, the area of incision was washed with saline and the incision was closed with autoclips. (Occasionally, instead of an intraduodenal injection, animals were dosed by the oral or subcutaneous route. In the latter case, dosing was done thirty to sixty minutes before the operation.)
The abdominal cavity was exposed by cutting with scissors and the esophagus close to the stomach was clamped off with a hemostat, the stomach was removed by cutting above the hemostat (the esophagus was cut) and between the two sutures. Extraneous tissue was removed, the stomach washed with saline and blotted on gauze. A slit was carefully made in the stomach which was held over a funnel and the contents were collected in a centrifuge tube. The stomach was further cut along the outside edge and turned inside out. Two ml. H2 O were used to wash the stomach contents into the respective centrifuge tube. The combined stomach contents and wash were then centrifuged out for 10 minutes in the International Size 2 Centrifuge (setting at 30). The supernatant was collected, volume measured and recorded, 2 drops of a phenylphthalein indicator (1% in 95% ethanol) were added and the solution was titrated with 0.02 N NaOH (or with 0.04 N NaOH when large volumes of stomach contents were encountered) to pH 8.4 (because of usual coloring of the stomach contents, phenolphthalein was only used to permit visual indication that the end point was near) and the amount of acid present was calculated.
Compounds inducing inhibition of gastric acid secretion of 20% or more were considered active. In a representative operation, and merely by way of illustration, the results obtained with this assay with typical compounds of the present invention are given in Table II below.

Experiment [1] deals with basal gastric acid secretion. The experiment can be described thus: Inhibition of total acid output (basal gastric acid secretion) in the acute gastric fistula rat. Particulars: intraduodenal; for inhibition in vivo at 10 mg/kg / inhibition in vivo at 2.5 mg/kg / inhibition in vivo at 5 mg/kg: Rattus norvegicus. In kind it is in vivo, female Sprague-Dawley rats. As to the method: Inhibition of basal gastric acid secretion can be determined by the following procedure.
Female Sprague-Dawley rats weighing 140-160 grams are fasted in individual cages for 18-24 hours. The rats are then lightly anesthetized with ether and their front teeth extracted to avoid destruction of the plastic cannula. A midline incision is then made and the stomach and duodenum exposed. A flanged polyvinyl tube is inserted into the fundic portion of the stomach and secured with a purse string suture line using 4-O Mersilene. The rat is then dosed by injection of the compound into the duodenum (1.0 ml. per 100 gram body weight). After dosing, the abdominal wall and skin are closed using metal wound clips. The rat is replaced in a cage containing a longitudinal slit to allow the polyvinyl tube to hang freely. An 8 ml. plastic collecting tube is attached to the flanged cannula and hangs freely below the cage. The first 30 minute sample is discarded designating this time as zero. The collecting tube is attached again and samples removed at the end of 60 and 120 minutes. These samples are referred to as "A" and "B" in the table. The hourly samples are then transferred to a 15 ml. centrifuge and centrifuged for 5-10 minutes. Total and sediment volume are then recorded with the supernatent volume being used as volume of secretion. A 1 ml. or less aliquot is then removed and placed in a 50 ml. beaker containing 10 ml. of distilled water. This sample is then titrated using 0.01 N NaPH to pH 7.0 using a Beckman zeromatic pH meter. Volume, titratable acidity (mew/L) and total acid output (ueq/hour) are recorded. Percent inhibition is determined by comparison with the appropriate control. Groups of three rats were used for preliminary testing, and groups of six rats were used for dose-response evaluations. All compounds are administered in a vehicle consisting of 0.5% methocel, 0.4% tween 80, and saline at a constant volume of 1 ml./100 gram rat. Samples are dispersed by sonification. Percent inhibition is calculated on basis of concurrent vehicle control.
In Table III which follows is given the effect on total acid output after 60 minutes and 120 minutes of intraduodenal dose, of representative compounds of this invention.

The subject of experiment [2] is ulcerogenic effects induced by indomethacin (stomach ulcers). The format is in vivo, rat. Particulars: indomethacin 20 mg/kg s.c., score 0-4. As to the method: It is further to be noted that although prostaglandins in general are not effective when administered by oral route, the compounds of this invention are effective orally. The assay to determine the protective effect of these compounds is carried out in the following manner.
Rats were starved for 48 hours (water was given ad libitum). Indomethacin (20 mg./kg. of body weight) was administered by the subcutaneous route and one-half the dose of the test compound was administered by gavage at the same time. After three hours, the second half of the test compound was administered, also by gavage. Five hours after the administration of indomethacin the animals were decapitated and the stomachs removed. The stomachs were washed with distilled water, blotted on gauze, cut along the larger curvature, and the contents rinsed with distilled water. The stomachs were spread out, pinned on a cork and visualized under magnifying glass for ulcers. The criteria for scoring of ulcers was as previously reported. [Abdel-Galil et al. Brit. J. Pharmac. Chemotherapy 33:1-14 (1968)]. […]
1 Petechial hemorrhage of pin point ulcers
3 Many ulcers, a few large
4 Many ulcers, mainly large
Control animals treated with indomethacin but not test compound consistently give scores of about 2.5-3.5. Control animals treated with neither indomethacin not test compound give scores of about 0.5-0.8. Compounds diminishing the control ulcer score by 0.5 unit or more are considered to be active.

The mark [3] stands for this setting: 1 h, 10 mg/kg, 60 min, read-out: % Inhibition of total acid output, after 60 minutes (A).
[4] abbreviates: 2 h, 10 mg/kg, 120 min, read-out: % Inhibition of total acid output, after 120 minutes (B).
Setting [5] is: 1 h, 60 min, read-out: % Inhibition of total acid output, after 60 minutes (A).
Where [6] appears, read: 2 h, 120 min, read-out: % Inhibition of total acid output, after 120 minutes (B).
Where [7] appears, read: total oral dose 50 mg/kg, controls 2.5-3.2.
Setting [8] is: total oral dose 25 mg/kg, controls 2.7-3.9.

Read-outs that look alike come from different tables or passages of the source.

With `CCCCC[C@H](O)/C=C/[C@H]1[C@H](C(C)(C)O)CC(=O)[C@@H]1C/C=C\CCCC(=O)O` [11-deoxy-11α-(1-hydroxy-1-methylethyl)prostaglandin-E2], the inhibition in vivo at 8 mg/kg in the experiment with gastric acid secretion (sc, subcutaneous, 8 mg/kg) was found to be 31%.

Take `CCCCC[C@H](O)/C=C/[C@@H]1[C@@H](C/C=C\CCCC(=O)O)[C@@H](O)C[C@H]1C(C)(C)O` [11-deoxy-11α-(1-hydroxy-1-methylethyl)prostaglandin-F2α]: the inhibition in vivo at 10 mg/kg in experiment [1] (setting [3]) stood at 36%; in experiment [1] (setting [4]), 35%.

As to `CCCCC[C@@H](/C=C/[C@H]1[C@H](SCC)CC(=O)[C@@H]1C/C=C\CCCC(=O)OC)OC(C)=O` [11-deoxy-11α-ethylthio-15-O-acetyl prostaglandin E2 methyl ester], the inhibition in vivo at 50 mg/kg with gastric acid secretion (intraduodenal) came out at 27%. The inhibition in vivo at 2.5 mg/kg in experiment [1] (setting [5]) amounted to 54%; in experiment [1] (setting [6]) it was 51%. Further, the inhibition in vivo at 5 mg/kg in experiment [1] (setting [5]) was determined as 19%; in experiment [1] (setting [6]), 59%. Moreover, the inhibition in vivo at 10 mg/kg in experiment [1] (setting [3]) came out at 80%; in experiment [1] (setting [4]), 24%.

For `CCCCCC(C)/C=C/[C@H]1[C@H](C)CC(=O)[C@@H]1C/C=C\CCCC(=O)OC` (stereo partly drawn) [11-deoxy-11α-methyl-15-deoxy-15-methylprostaglandin E2 methyl ester], in the experiment on gastric acid secretion (intraduodenal), the inhibition in vivo at 50 mg/kg stood at 40%.

On to `CCCCC[C@H](O)/C=C/[C@@H]1[C@@H](C/C=C\CCCC(=O)O)[C@@H](O)C[C@H]1C(N)=O` [11α-carboxamido-11-deoxyprostaglandin F2α], for which the inhibition in vivo at 50 mg/kg with gastric acid secretion (intraduodenal) came to 27%. The “Ulcer score, treated animals” value in experiment [2] (setting [7]) was determined as 2.3.

Turning to `CCCCC[C@H](O)/C=C/[C@@H]1[C@@H](C/C=C\CCCC(=O)O)[C@@H](O)C[C@H]1C(C)C` [11α-isopropyl-11-deoxyprostaglandin F2α], the inhibition in vivo at 10 mg/kg in experiment [1] (setting [3]) turned out to be 44%; in experiment [1] (setting [4]) it was 35%.

Turning to `CCCCC[C@H](O)/C=C/[C@H]1[C@H](C[N+](=O)[O-])C[C@H](O)[C@@H]1C/C=C\CCCC(=O)O` [11α-nitromethyl-11-deoxyprostaglandin F2α], in the experiment with gastric acid secretion (intraduodenal), the inhibition in vivo at 50 mg/kg stood at 38%. Besides, in experiment [2] (setting [7]), the “Ulcer score, treated animals” value was 1.8.

As for `CCCCC[C@H](O)/C=C/[C@H]1C(C#N)CC(=O)[C@@H]1C/C=C\CCCC(=O)OC` (stereo partly drawn) [11α/β-cyano-11-deoxyprostaglandin E2 methyl ester], the inhibition in vivo at 50 mg/kg with gastric acid secretion (intraduodenal) turned out to be 33%. The “Ulcer score, treated animals” value in experiment [2] (setting [8]) was found to be 1.3.

Take `CCCCCC(C)/C=C/[C@@H]1[C@@H](C/C=C\CCCC(=O)O)[C@@H](O)C[C@H]1C` (stereo partly drawn) [l-9α-hydroxy-11α,15-dimethyl-S--cis,13-trans-prostadienoic acid]: the values for the inhibition in vivo at 10 mg/kg in experiment [1] (setting [3]) and in experiment [1] (setting [4]) were 25% and 20%, respectively.

With `CCCCCC(O)/C=C/C1C(S)CC(O)C1C/C=C\CCCC(=O)O` (stereo not drawn) [l-11-mercapto-11-deoxprostaglandin-F2 α, l-11-deoxy-11α-mercaptoprostaglandin-F2 α], the “% Inhibition of total acid output, after 60 minutes (A)” value in experiment [1] (10 mg/kg, 60 min) came to 44%. Also, the “% Inhibition of total acid output, after 120 minutes (B)” value in experiment [1] (10 mg/kg, 120 min) is 55%.

Consider `CCCCCC(C)/C=C/C1C(C)CC(=O)C1C/C=C\CCCC(=O)O` (stereo not drawn) [l-11α,15-dimethyl-11,15-bis-deoxyprostaglandin-E2 α], for which the “Ulcer score, treated animals” value in experiment [2] (setting [7]) came out at 2.2.

In the case of `CCCCC[C@H](O)/C=C/[C@H]1[C@H](CC)C[C@H](O)[C@@H]1C/C=C\CCCC(=O)O` [l-11α-ethyl-11-deoxyprostaglandin-F2 α, 11α-ethyl-11-deoxyprostaglandin F2α], the “Ulcer score, treated animals” value in experiment [2] (setting [8]) stood at 2.2.

On to `CCCCC[C@@H](/C=C/[C@H]1[C@H](C)CC(=O)[C@@H]1C/C=C\CCCC(=O)OC)OC(C)=O` [l-11α-methyl-11-deoxyprostaglandin-E2 15-O--acetyl methyl ester], for which the inhibition in vivo at 50 mg/kg in the experiment with gastric acid secretion (intraduodenal) was 63%.

Turning to `CCCCC[C@@H](/C=C/[C@H]1[C@H](SC)CC(=O)[C@@H]1C/C=C\CCCC(=O)OC)OC(C)=O` [l-11α-methylthio-11-deoxyprostaglandin-E2 15-O--acetate methyl ester], the inhibition in vivo at 50 mg/kg in the experiment on gastric acid secretion (intraduodenal) is 35%. Besides, the “Ulcer score, treated animals” value in experiment [2] (setting [7]) is on record as 2.0.

As to `CCCCC[C@H](O)/C=C/[C@H]1[C@H](SC)CC(=O)[C@@H]1C/C=C\CCCC(=O)OC` [l-11α-methylthio-11-deoxyprostaglandin-E2 methyl ester], the inhibition in vivo at 100 mg/kg with gastric acid secretion (intraduodenal, 100 mg/kg) is 55%.

Regarding `CCCCC[C@H](O)/C=C/[C@@H]1[C@@H](C/C=C\CCCC(=O)O)[C@@H](O)C[C@H]1c1ccccc1` [l-11α-phenyl-11-deoxyprostaglandin-F2 α, l-11-deoxy-11α-phenylprostaglandin-F2 α], the “Ulcer score, treated animals” value in experiment [2] (setting [8]) was 2.0.

As for `CCCCC[C@H](O)/C=C/[C@H]1[C@@H](CO)C[C@H](O)[C@@H]1C/C=C\CCCC(=O)O` [l-11β-hydroxymethyl-11-deoxyprostaglandin-F2 α], the inhibition in vivo at 10 mg/kg was 0% in experiment [1] (setting [3]) and 43% in experiment [1] (setting [4]).

Source of the values: US4444691A, “11-Cyano-prostaglandins of the F-series” (American Cyanamid Company, priority 1982, dated 1984).
